Strand notation (5' to 3'): a small letter for the sugar, then the base; units joined by * are phosphorothioate-linked, units joined directly phosphodiester-linked; [ ] holds rarer units or linkages, { } end groups; capitals alone tell only the bases. e = 2'-O-(2-methoxyethyl) (MOE); [5mC] = 5-methylcytosine; d = 2'-deoxy (DNA)
System: human PKK mRNA
Assay: Antisense inhibition of human PKK mRNA in HepaRG cells, 5,000 nM (Example 2)
Format: cell-based
Conditions: HepaRG cells, 5,000 nM antisense oligonucleotide; 5-10-5 gapmers; Table 17
Method in brief: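 Chimeric MOE gapmers with full phosphorothioate backbones were tested once at 5,000 nM in electroporated HepaRG cells. After about 24 hours, quantitative PCR measured PKK mRNA relative to untreated control cells.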

Substance	% inhibition
547016 (eG*eT*eA*eG*eG*dT*dG*dG*dT*dG*dG*dG*dA*dT*dT*eG*eG*eT*eG*eG; antisense) [compound 547016]	62%
547017 (eG*eG*eT*eA*eG*dG*dT*dG*dG*dT*dG*dG*dG*dA*dT*eT*eG*eG*eT*eG; antisense) [compound 547017]	61%
547018 (eG*eG*eT*eG*eG*d[5mC]*dG*dG*dG*dA*dT*dT*dG*dG*dT*eG*eG*eT*eG*eG; antisense) [compound 547018]	58%
547020 (eG*eG*eA*eT*e[5mC]*dG*dG*dT*dG*dG*dT*dG*dG*dG*dA*eT*eT*eG*eG*eT; antisense) [compound 547020]	47%
547021 (eT*eT*eG*eG*eT*dG*dG*d[5mC]*dG*dG*dG*dA*dT*d[5mC]*dG*eG*eT*eG*eG*eT; antisense) [compound 547021]	57%
547022 (eA*eT*eT*eG*eG*dT*dG*dG*d[5mC]*dG*dG*dG*dA*dT*d[5mC]*eG*eG*eT*eG*eG; antisense) [compound 547022]	69%
547023 (eG*eA*eT*eT*eG*dG*dT*dG*dG*d[5mC]*dG*dG*dG*dA*dT*e[5mC]*eG*eG*eT*eG; antisense) [compound 547023]	91%
547024 (eG*eG*eA*eT*eT*dG*dG*dT*dG*dG*d[5mC]*dG*dG*dG*dA*eT*e[5mC]*eG*eG*eT; antisense) [compound 547024]	56%
547025 (eT*eG*eG*eT*eG*dG*dT*dG*dG*dG*dA*dT*dT*dG*dG*eT*eG*eG*eT*eT; antisense) [compound 547025]	72%
547029 (eT*e[5mC]*eT*eT*e[5mC]*dT*dA*dG*dG*dG*d[5mC]*d[5mC]*dA*d[5mC]*dA*e[5mC]*e[5mC]*eT*e[5mC]*eT; antisense) [compound 547029]	50%
547035 (eT*eG*eG*eT*e[5mC]*d[5mC]*d[5mC]*dA*dA*dA*dT*dT*dG*dG*dA*eG*eT*eG*e[5mC]*eA; antisense) [compound 547035]	40%
547039 (eT*e[5mC]*eT*e[5mC]*eT*dA*dT*dA*d[5mC]*dA*dG*d[5mC]*dT*dG*dG*eG*e[5mC]*eA*e[5mC]*eA; antisense) [compound 547039]	0%
547049 (e[5mC]*eA*e[5mC]*eT*eT*d[5mC]*d[5mC]*d[5mC]*dA*dG*d[5mC]*dA*dA*d[5mC]*d[5mC]*e[5mC]*eT*e[5mC]*eA*e[5mC]; antisense) [compound 547049]	20%
547055 (eG*e[5mC]*eT*e[5mC]*e[5mC]*dT*dG*dG*d[5mC]*dA*dG*d[5mC]*dA*dA*dT*eG*eA*e[5mC]*e[5mC]*e[5mC]; antisense) [compound 547055]	70%
547059 (eG*eG*eG*eT*eA*dT*d[5mC]*dT*dT*d[5mC]*dA*d[5mC]*dT*dG*dT*eT*e[5mC]*e[5mC]*eA*eG; antisense) [compound 547059]	12%
547063 (e[5mC]*eG*eT*e[5mC]*eA*dT*dG*d[5mC]*dT*dT*dA*d[5mC]*d[5mC]*dT*dT*eT*e[5mC]*eT*e[5mC]*e[5mC]; antisense) [compound 547063]	23%
547069 (eG*e[5mC]*e[5mC]*e[5mC]*eT*d[5mC]*d[5mC]*dG*dA*dG*d[5mC]*dT*dT*dT*dG*eG*e[5mC]*eA*eA*e[5mC]; antisense) [compound 547069]	35%
547071 (eG*e[5mC]*eA*eG*e[5mC]*d[5mC]*d[5mC]*d[5mC]*d[5mC]*d[5mC]*dA*dG*dA*dA*dA*eT*e[5mC]*e[5mC]*e[5mC]*eA; antisense) [compound 547071]	27%
547076 (eT*e[5mC]*eT*e[5mC]*eA*dA*dG*d[5mC]*dA*dG*d[5mC]*d[5mC]*dT*dA*dT*eT*eG*eT*eG*eT; antisense) [compound 547076]	14%
547080 (eG*eT*eG*e[5mC]*eA*dA*dG*dA*d[5mC]*d[5mC]*dT*dT*dG*d[5mC]*dT*eT*eG*e[5mC]*e[5mC]*eA; antisense) [compound 547080]	54%
547081 (e[5mC]*eT*eG*eT*eA*dG*dT*d[5mC]*d[5mC]*dA*d[5mC]*dT*dA*d[5mC]*dA*e[5mC]*eA*eG*e[5mC]*eA; antisense) [compound 547081]	83%
547082 (eT*e[5mC]*eT*e[5mC]*e[5mC]*d[5mC]*dT*dG*dA*dG*dT*d[5mC]*dA*d[5mC]*dA*eG*eT*eG*eG*eA; antisense) [compound 547082]	64%
547085 (e[5mC]*e[5mC]*eA*eG*eG*dT*dG*d[5mC]*dA*dG*d[5mC]*dA*d[5mC]*dG*dG*eA*eG*eA*eG*eG; antisense) [compound 547085]	44%

Same assay, conditions: HepaRG cells, electroporation with 5,000 nM antisense oligonucleotide, approximately 24 hours, PKK mRNA by RT-PCR (RTS3454), relative to untreated control cells; Table 5 experiment

Substance	% inhibition
547269 (eA*eA*eT*eG*eA*dA*d[5mC]*dG*dG*dT*d[5mC]*dT*dT*d[5mC]*dA*eA*eG*e[5mC]*eT*eG; antisense) [compound 547269]	56%
547270 (eA*eA*eA*eA*eT*dG*dA*dA*d[5mC]*dG*dG*dT*d[5mC]*dT*dT*e[5mC]*eA*eA*eG*e[5mC]; antisense) [compound 547270]	68%
547271 (eT*eT*eA*eA*eA*dA*dA*dT*dG*dA*dA*d[5mC]*dG*dG*dT*e[5mC]*eT*eT*e[5mC]*eA; antisense) [compound 547271]	60%
547272 (e[5mC]*eA*e[5mC]*eT*eT*dA*dA*dA*dA*dA*dT*dG*dA*dA*d[5mC]*eG*eG*eT*e[5mC]*eT; antisense) [compound 547272]	82%
547274 (antisense eG*eA*eG*eG*eT*dG*dA*dG*dT*d[5mC]*dT*d[5mC]*dT*dT*dG*eT*e[5mC]*eA*e[5mC]*eT) [compound 547274]	70%
547278 (antisense eA*e[5mC]*eA*e[5mC]*eA*dA*dT*dT*dG*d[5mC]*dT*dT*d[5mC]*dT*dT*eG*eG*eA*eG*eG) [compound 547278]	70%
547279 (antisense eA*eA*eA*eA*e[5mC]*dA*d[5mC]*dA*dA*dT*dT*dG*d[5mC]*dT*dT*e[5mC]*eT*eT*eG*eG) [compound 547279]	69%
547280 (antisense eG*eA*eA*eA*eA*d[5mC]*dA*d[5mC]*dA*dA*dT*dT*dG*d[5mC]*dT*eT*e[5mC]*eT*eT*eG) [compound 547280]	47%
547281 (antisense eT*eT*eG*e[5mC]*eT*dT*dG*dA*dA*dT*dA*dA*dA*dA*dT*e[5mC]*eA*eT*eT*e[5mC]) [compound 547281]	41%
547282 (antisense eT*eT*eG*e[5mC]*eT*dT*dG*d[5mC]*dT*dT*dG*dA*dA*dT*dA*eA*eA*eA*eT*e[5mC]) [compound 547282]	53%
547283 (antisense eA*eG*eT*eT*eG*d[5mC]*dT*dT*dG*d[5mC]*dT*dT*dG*dA*dA*eT*eA*eA*eA*eA) [compound 547283]	67%
547284 (antisense eA*eA*eA*eT*eG*dA*dA*dA*dT*dA*dA*dG*dT*dT*dG*e[5mC]*eT*eT*eG*e[5mC]) [compound 547284]	26%
547285 (antisense eA*e[5mC]*eT*eG*eT*dA*dG*d[5mC]*dA*dA*dA*d[5mC]*dA*dA*dG*eG*eA*eA*eA*eT) [compound 547285]	51%
547286 (antisense eA*eG*eA*e[5mC]*eA*dT*d[5mC]*d[5mC]*dA*d[5mC]*dA*dG*dG*dA*dA*eA*e[5mC]*eT*eG*eT) [compound 547286]	68%
547287 (antisense eG*eT*e[5mC]*eA*eG*dA*d[5mC]*dA*dT*d[5mC]*d[5mC]*dA*d[5mC]*dA*dG*eG*eA*eA*eA*e[5mC]) [compound 547287]	69%
547289 (antisense eT*eT*e[5mC]*eA*eT*dA*dG*dA*dG*dT*dT*dG*dA*dG*dT*e[5mC]*eA*eG*eA*e[5mC]) [compound 547289]	74%
547290 (antisense eA*eG*e[5mC]*eT*eA*d[5mC]*dA*dT*d[5mC]*d[5mC]*d[5mC]*d[5mC]*dA*d[5mC]*d[5mC]*eT*e[5mC]*eT*eG*eA) [compound 547290]	76%
547291 (antisense eA*eT*eG*eG*eA*dA*dG*d[5mC]*dT*dA*d[5mC]*dA*dT*d[5mC]*d[5mC]*e[5mC]*e[5mC]*eA*e[5mC]*e[5mC]) [compound 547291]	74%
547292 (antisense eT*eA*e[5mC]*eA*eT*dG*dG*dA*dA*dG*d[5mC]*dT*dA*d[5mC]*dA*eT*e[5mC]*e[5mC]*e[5mC]*e[5mC]) [compound 547292]	60%
547295 (antisense eA*e[5mC]*e[5mC]*eT*e[5mC]*dA*dT*d[5mC]*dT*dG*dG*d[5mC]*dA*dG*dT*eA*eT*eT*eG*eG) [compound 547295]	88%
547296 (antisense eT*eG*e[5mC]*eA*e[5mC]*d[5mC]*dT*d[5mC]*dA*dT*d[5mC]*dT*dG*dG*d[5mC]*eA*eG*eT*eA*eT) [compound 547296]	72%
547297 (antisense eT*eG*eG*eA*eA*dT*dG*dT*dG*d[5mC]*dA*d[5mC]*d[5mC]*dT*d[5mC]*eA*eT*e[5mC]*eT*eG) [compound 547297]	84%
547299 (antisense eA*eA*eA*e[5mC]*eT*dG*dA*dA*dT*dA*dG*d[5mC]*dA*dA*dA*e[5mC]*eA*e[5mC]*e[5mC]*eT) [compound 547299]	76%
547300 (antisense eG*eA*eA*e[5mC]*eT*dT*dG*d[5mC]*dT*dG*dG*dA*dA*dG*dA*eA*eA*eA*e[5mC]*eT) [compound 547300]	37%
547301 (antisense eT*e[5mC]*eA*eT*eT*dG*dA*dT*dT*dG*dA*dA*d[5mC]*dT*dT*eG*e[5mC]*eT*eG*eG) [compound 547301]	80%
547302 (antisense e[5mC]*e[5mC]*eA*eT*eG*dT*d[5mC]*dA*dT*dT*dG*dA*dT*dT*dG*eA*eA*e[5mC]*eT*eT) [compound 547302]	58%
